Here are results for nine compounds from ChEMBL document CHEMBL1158181, “Studies of trypanocidal (inhibitory) power of naphthoquinones: evaluation of quantum chemical molecular descriptors for structure-activity relationships” (Eur J Med Chem, 2008).

By IC50 is commonly meant the concentration at which inhibition is half-maximal. Low values mean inhibition by little substance, high ones a need for much substance.

Molecules are shown by their SMILES.

A short description of data set [1]: Oxidation of dihydrolipoamide assessed as oxygen consumption at 50 uM. It is filed as physicochemical.
Data set [2] in a line: Oxidation of dithiothreitol assessed as oxygen consumption at 50 uM. The format is physicochemical.
Data set [3] deals with Leptomonas seymouri. The experiment in a line: Antitrypanosomal activity against Leptomonas seymouri. The format is functional, organism-based.
The test system of data set [4] is Crithidia fasciculata. The data set can be described thus: Antitrypanosomal activity against Crithidia fasciculata. It is filed as functional, organism-based.

Turning to `CC1(C)CCC2=C(O1)c1ccccc1C(=O)C2=O` [LAPACHONE], the Activity in data set [1] was found to be 808 µM/min; in data set [2], 238 µM/min. Also, inhibition in data set [3] was half-maximal at 400 nM (IC50).
Turning to `CC1=COC2=C(C)C(=O)C(=O)c3c(C)ccc1c32` [MANSONONE F], the values for the Activity in data set [1] and in data set [2] were 58 µM/min and 14 µM/min, respectively. Also, the IC50 in data set [4] is 300 nM; in data set [3], 100 nM.
As for `CC1(C)CCC2=C(O1)C(=O)c1ccccc1C2=O` [ALPHA-LAPACHONE], the results for the Activity in data set [1] and in data set [2] were 7 µM/min and 1 µM/min, respectively. Besides, the 50% inhibitory concentration (IC50) in data set [4] was found to be 27000 nM; in data set [3] it was 4100 nM.
The like results for `CC1(C)CCC2=C(O1)c1cc(Cl)ccc1C(=O)C2=O` were, in that order, 879 µM/min, 470 µM/min, 800 nM and 400 nM.
The like results for `CC1(c2ccccc2)CCC2=C(O1)c1ccccc1C(=O)C2=O` (centres undefined) were, in that order, 990 µM/min, 315 µM/min, 700 nM and 700 nM.
On to `CCC1(C)CCC2=C(O1)c1ccccc1C(=O)C2=O` (centres undefined), for which the Activity in data set [1] is 733 µM/min; in data set [2] it was 208 µM/min. In addition, the values for the IC50 in data set [4] and in data set [3] were 800 nM and 300 nM, respectively.
Consider `CC1=Cc2c(C(C)C)ccc(C)c2C(=O)C1=O`, for which the Activity in data set [1] turned out to be 434 µM/min. Moreover, the values for the IC50 in data set [4] and in data set [3] were 6000 nM and 4000 nM, respectively.
On to `CC1=CC2=C(C(=O)C1=O)C(C)CCC2C(C)C` (centres undefined) [MANSONONE A], for which the Activity in data set [1] amounted to 26 µM/min; in data set [2] it was 37 µM/min. Besides, the results for the IC50 in data set [4] and in data set [3] were 15000 nM and 8500 nM, respectively.
For `CC1=C2OCC(C)c3ccc(C)c(c32)C(=O)C1=O` (centres undefined) [MANSONONE E] the same measures were 276 µM/min, 66 µM/min, 600 nM and 400 nM.
